Measurements published in US7838674B2, “Tetracyclic lactame derivatives” (Novartis AG, priority 2007, dated 2010).
Counter-ions that a name gives are not always drawn.

Target: T1, MAPKAPK2 enzyme (HIS-MK2, Invitrogen PV4019) (Homo sapiens, UniProt P49137)
T1 construct: His; purchased Invitrogen PV4019
Assay: Alternative MAPKAPK2 assay (Caliper microfluidic mobility shift, HSP27-peptide)
Type: biochemical
Details: HIS-MK2 0.013 nM, ATP 10 μM, 60 min at 30° C.

T1 sequence (P49137 whole entry): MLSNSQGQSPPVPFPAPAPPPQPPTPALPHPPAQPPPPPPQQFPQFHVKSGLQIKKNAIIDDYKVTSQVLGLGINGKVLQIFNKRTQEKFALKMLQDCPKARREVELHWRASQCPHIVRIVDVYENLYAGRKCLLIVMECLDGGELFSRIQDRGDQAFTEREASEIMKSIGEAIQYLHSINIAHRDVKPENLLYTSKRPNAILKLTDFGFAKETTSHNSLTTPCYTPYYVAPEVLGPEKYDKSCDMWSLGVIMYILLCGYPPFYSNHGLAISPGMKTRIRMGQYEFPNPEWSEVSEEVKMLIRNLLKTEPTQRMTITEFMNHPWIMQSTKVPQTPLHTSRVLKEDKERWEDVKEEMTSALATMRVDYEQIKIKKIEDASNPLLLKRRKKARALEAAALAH

First: O=C1NCC2(CC2)c2[nH]c3c(c21)CCc1cnc(-c2cncc(F)c2)cc1-3 [Example 112, 2-(1-Aminomethyl-cyclopropyl)-8-(5-fluoro-pyridin-3-yl)-4,5-dihydro-1H-pyrrolo[2,3-f]isoquinoline-3-carboxylic acid lactam]
Second: N#Cc1cncc(-c2cc3c(cn2)CCc2c-3[nH]c3c2C(=O)NCC32CC2)c1 [Example 113, 2-(1-Aminomethyl-cyclopropyl)-8-(5-cyano-pyridin-3-yl)-4,5-dihydro-1H-pyrrolo[2,3-f]isoquinoline-3-carboxylic acid lactam]
The IC50 of the first is 2.6-fold lower: 9 nM for the first, 23 nM for the second.

O=C1NCC2(CC2)c2[nH]c3c(c21)CCc1cnc(-c2ccc4c(c2)OCCO4)cc1-3 [Example 114] and CN1CCOc2cc(-c3cc4c(cn3)CCc3c-4[nH]c4c3C(=O)NCC43CC3)ccc21 [Example 130, 2-(1-Aminomethyl-cyclopropyl)-8-(4-methyl-3,4-dihydro-2H-benzo[1,4]oxazin-7-yl)-4,5-dihydro-1H-pyrrolo[2,3-f]isoquinoline-3-carboxylic acid lactam] are within 1.5-fold of each other in IC50: 41 nM for the first, 45 nM for the second.

N#Cc1cc(-c2cc3c(cn2)CCc2c-3[nH]c3c2C(=O)NCC32CC2)ccc1F [Example 115] and C#Cc1cc(-c2cc3c(cn2)CCc2c-3[nH]c3c2C(=O)NCC32CC2)ccc1OC [Example 120, 2-(1-Aminomethyl-cyclopropyl)-8-(3-ethynyl-4-methoxy-phenyl)-4,5-dihydro-1H-pyrrolo[2,3-f]isoquinoline-3-carboxylic acid lactam] are within 1.5-fold of each other in IC50: 36 nM for the first, 40 nM for the second.

CN(C)c1ccc(-c2cc3c(cn2)CCc2c-3[nH]c3c2C(=O)NCC32CC2)cn1 [Example 117] and O=C1NCC2(CC2)c2[nH]c3c(c21)CCc1cnc(-c2cccnc2)cc1-3 [Example 125, 2-(1-Aminomethyl-cyclopropyl)-8-pyridin-3-yl-4,5-dihydro-1H-pyrrolo[2,3-f]isoquinoline-3-carboxylic acid lactam] are within 1.5-fold of each other in IC50: 19 nM for the first, 16 nM for the second.

First: CC(C)(N)CCc1ccc(-c2cc3c(cn2)CCc2c-3[nH]c3c2C(=O)NCC32CC2)cc1 [Example 118, 8-[4-(3-Amino-3-methyl-butyl)-phenyl]-2-(1-aminomethyl-cyclopropyl)-4,5-dihydro-1H-pyrrolo[2,3-f]isoquinoline-3-carboxylic acid lactam]
Second: CC(C)(O)CCc1ccc(-c2cc3c(cn2)CCc2c-3[nH]c3c2C(=O)NCC32CC2)cc1 [Example 126, 2-(1-Aminomethyl-cyclopropyl)-8-[4-(3-hydroxy-3-methyl-butyl)-phenyl]-4,5-dihydro-1H-pyrrolo[2,3-f]isoquinoline-3-carboxylic acid lactam]
The IC50 of the first is 2.1-fold lower: 16 nM for the first, 34 nM for the second.

Going from CC(C)(O)C#Cc1ccc(-c2cc3c(cn2)CCc2c-3[nH]c3c2C(=O)NCC32CC2)cc1 [Example 119] to O=C1NCC2(CC2)c2[nH]c3c(c21)CCc1cnc(-c2ccncc2)cc1-3 [Example 124, 2-(1-Aminomethyl-cyclopropyl)-8-pyridin-4-yl-4,5-dihydro-1H-pyrrolo[2,3-f]isoquinoline-3-carboxylic acid lactam], the IC50 falls from 89 nM to 55 nM (1.6-fold).

Going from O=C1NCC2(CC2)c2[nH]c3c(c21)CCc1cnc(-c2cncnc2)cc1-3 [Example 123, 2-(1-Aminomethyl-cyclopropyl)-8-pyrimidin-5-yl-4,5-dihydro-1H-pyrrolo[2,3f]isoquinoline-3-carboxylic acid lactam] to COc1cncc(-c2cc3c(cn2)CCc2c4c(n(C)c2-3)CC2(CNC2)NC4=O)c1 [Example 140, 2-(3-Amino-azetidin-3-ylmethyl)-8-(5-methoxy-pyridin-3-yl)-1-methyl-4,5-dihydro-1H-pyrrolo[2,3-f]isoquinoline-3-carboxylic acid lactam hydrochloride], the IC50 falls from 30 nM to 12 nM (2.5-fold). The second is the more potent here.

Compared with COc1ccc(-c2ncc3c(n2)-c2c(c4c(n2C)CC2(CNC2)NC4=O)CC3)cc1 [Example 131, 2-(3-Amino-azetidin-3-ylmethyl)-8-(4-methoxy-phenyl)-1-methyl-4,5-dihydro-1H-1,7,9-triaza-cyclopenta[a]naphthalene-3-carboxylic acid lactam hydrochloride], Cn1c2c(c3c1-c1nc(-c4ccc(Br)cc4)ncc1CC3)C(=O)NC1(CNC1)C2 [Example 139, 2-(3-Amino-azetidin-3-ylmethyl)-8-(4-bromo-phenyl)-1-methyl-4,5-dihydro-1H-1,7,9-triaza-cyclopenta[a]naphthalene-3-carboxylic acid lactam hydrochloride] is 3-fold higher in IC50: 6 nM for the first, 18 nM for the second.

Cn1c2c(c3c1-c1cc(-c4cccc(C#N)c4)ncc1CC3)C(=O)NC1(CNC1)C2 [Example 132, 2-(3-Amino-azetidin-3-ylmethyl)-8-(3-cyano-phenyl)-1-methyl-4,5-dihydro-1H-pyrrolo[2,3-f]isoquinoline-3-carboxylic acid lactam hydrochloride] and Cn1c2c(c3c1-c1cc(-c4cccc(F)c4)ncc1CC3)C(=O)NC1(CNC1)C2 [Example 133, 2-(3-Amino-azetidin-3-ylmethyl)-8-(3-fluoro-phenyl)-1-methyl-4,5-dihydro-1H-pyrrolo[2,3-f]isoquinoline-3-carboxylic acid lactam hydrochloride] are within 1.5-fold of each other in IC50: 14 nM for the first, 18 nM for the second.

Cn1c2c(c3c1-c1cc(-c4ccc(F)nc4)ncc1CC3)C(=O)NC1(CNC1)C2 [Example 134, 2-(3-Amino-azetidin-3-ylmethyl)-8-(6-fluoro-pyridin-3-yl)-1-methyl-4,5-dihydro-1H-pyrrolo[2,3-f]isoquinoline-3-carboxylic acid lactam hydrochloride] and COc1ccc(-c2cc3c(cn2)CCc2c4c(n(C)c2-3)CC2(CNC2)NC4=O)cn1 [Example 141, 2-(3-Amino-azetidin-3-ylmethyl)-8-(6-methoxy-pyridin-3-yl)-1-methyl-4,5-dihydro-1H-pyrrolo[2,3-f]isoquinoline-3-carboxylic acid lactam hydrochloride] are within 1.5-fold of each other in IC50: 20 nM for the first, 17 nM for the second.

Cn1c2c(c3c1-c1cc(-c4cncc(-c5ccccc5F)c4)ncc1CC3)C(=O)NC1(CNC1)C2 [Example 135, 2-(3-Amino-azetidin-3-ylmethyl)-8-[5-(2-fluoro-phenyl)-pyridin-3-yl]-1-methyl-4,5-dihydro-1H-pyrrolo[2,3-f]isoquinoline-3-carboxylic acid lactam hydrochloride] and Cn1c2c(c3c1-c1cc(-c4cncc(-c5ccc(F)cc5)c4)ncc1CC3)C(=O)NC1(CNC1)C2 [Example 136, 2-(3-Amino-azetidin-3-ylmethyl)-8-[5-(4-fluoro-phenyl)-pyridin-3-yl]-1-methyl-4,5-dihydro-1H-pyrrolo[2,3-f]isoquinoline-3-carboxylic acid lactam hydrochloride] are within 1.5-fold of each other in IC50: 32 nM for the first, 23 nM for the second.

COc1cccc(-c2ncc3c(n2)-c2c(c4c(n2C)CC2(CNC2)NC4=O)CC3)c1 [Example 137, 2-(3-Amino-azetidin-3-ylmethyl)-8-(3-methoxy-phenyl)-1-methyl-4,5-dihydro-1H-1,7,9-triaza-cyclopenta[a]naphthalene-3-carboxylic acid lactam hydrochloride] and COc1cc(OC)cc(-c2cc3c(cn2)CCc2c4c(n(C)c2-3)CC2(CNC2)NC4=O)c1 [Example 143, 2-(3-Amino-azetidin-3-ylmethyl)-8-(3,5-dimethoxy-phenyl)-1-methyl-4,5-dihydro-1H-pyrrolo[2,3-f]isoquinoline-3-carboxylic acid lactam hydrochloride] are within 1.5-fold of each other in IC50: 49 nM for the first, 69 nM for the second.

First: COc1ccc(-c2cc3c(cn2)CCc2c4c(n(C)c2-3)CC2(CN(C)C2)NC4=O)cn1 [Example 142, 2-(3-Amino-1-methyl-azetidin-3-ylmethyl)-8-(6-methoxy-pyridin-3-yl)-1-methyl-4,5-dihydro-1H-pyrrolo[2,3-f]isoquinoline-3-carboxylic acid lactam]
Second: CN(C)c1ccc(-c2cc3c(cn2)CCc2c4c(n(C)c2-3)CC2(CNC2)NC4=O)cn1 [Example 147, 2-(3-Amino-azetidin-3-ylmethyl)-8-(6-dimethylamino-pyridin-3-yl)-1-methyl-4,5-dihydro-1H-pyrrolo[2,3-f]isoquinoline-3-carboxylic acid lactam hydrochloride]
The IC50 of the first is 2.6-fold lower: 34 nM for the first, 89 nM for the second. The first is the more potent here.

First: COc1ccc(-c2cc3c(cn2)CCc2c4c(n(C)c2-3)CC2(CNC2)NC4=O)cc1OC [Example 144, 2-3-Amino-azetidin-3-ylmethyl)-8-(3,4-dimethoxy-phenyl)-1-methyl-4,5-dihydro-1H-pyrrolo[2,3-f]isoquinoline-3-carboxylic acid lactam hydrochloride]
Second: CN1CCOc2cc(-c3cc4c(cn3)CCc3c5c(n(C)c3-4)CC3(CNC3)NC5=O)ccc21 [Example 145, 2-(3-Amino-azetidin-3-ylmethyl)-1-methyl-8-(4-methyl-3,4-dihydro-2H-benzo[1,4]oxazin-7-yl)-4,5-dihydro-1H-pyrrolo[2,3-f]isoquinoline-3-carboxylic acid lactam hydrochloride]
The IC50 of the first is 2-fold higher: 58 nM for the first, 29 nM for the second. The second is the more potent here.

First: Cn1c2c(c3c1-c1cc(-c4cccc(N5CCOCC5)c4)ncc1CC3)C(=O)NC1(CNC1)C2 [Example 146, 2-(3-Amino-azetidin-3-ylmethyl)-8-(3-morpholin-4-yl-phenyl)-1-methyl-4,5-dihydro-1H-pyrrolo[2,3-f]isoquinoline-3-carboxylic acid lactam hydrochloride]
Second: Cn1c2c(c3c1-c1cc(-c4ccc5c(c4)OCCO5)ncc1CC3)C(=O)NC1(CNC1)C2 [Example 148, 2-(3-Amino-azetidin-3-ylmethyl)-8-(2,3-dihydro-benzo[1,4]dioxin-6-yl)-1-methyl-4,5-dihydro-1H-pyrrolo[2,3-f]isoquinoline-3-carboxylic acid lactam hydrochloride]
The IC50 of the first is 3-fold higher: 45 nM for the first, 15 nM for the second.

For Cn1c2c(c3c1-c1cc(-c4ccc(N5CCCCC5)nc4)ncc1CC3)C(=O)NC1(CNC1)C2 [Example 149, 2-(3-Amino-azetidin-3-ylmethyl)-8-(6-piperidinyl-pyridin-3-yl)-1-methyl-4,5-dihydro-1H-pyrrolo[2,3-f]isoquinoline-3-carboxylic acid lactam hydrochloride], the IC50 was 23 nM.
